# Measured values published in ChEMBL document CHEMBL3244019, “Chemical and biological studies of 1-(2,5-dihydroxy-4-methylphenyl)-2-aminopropane, an analogue of 6-hydroxydopamine” (J Med Chem, 1979).
# Assays:
# Brain = assay: Drug uptake in Sprague-Dawley rat brain at 6.6 mg, iv after 2 hrs; type: ADME, organism-based; conditions: in vivo
# [1] = Metabolic stability in rabbit liver homogenates with 90 ug of protein per ml assessed as compound auto-oxidation at 37 uM after 15 mins; type: ADME, tissue-based, Oryctolagus cuniculus; conditions: tissue homogenate, 0.25 h
# [2] = Half life in rabbit liver microsomes assessed as compound auto-oxidation at 37 uM; type: ADME, Oryctolagus cuniculus
# [3] = Half life of the compound assessed as compound auto-oxidation in 0.1 M buffer at 37 uM at pH 7.4; type: physicochemical
# [4] = Half life of the compound in 0.1 M metal-free buffer assessed as compound auto-oxidation at 37 uM at pH 7.4; type: physicochemical
# [5] = Half life in rabbit liver homogenates with 13 ug of protein per ml assessed as compound auto-oxidation at 37 uM; type: ADME, tissue-based, Oryctolagus cuniculus; conditions: liver homogenate
# [6] = Covalent binding in rabbit liver microsomal macromolecules at 60 uM after 15 mins in presence of NADPH; type: ADME, Oryctolagus cuniculus; conditions: microsomes, 0.25 h
# Albumin [7] = biological target: T1, Albumin (Bos taurus, UniProt P02769); assay: Covalent binding affinity to bovine serum albumin assessed per mol of BSA at 4.8 mM after 1 hr by combustion-LSC method; type: ADME; conditions: cattle, 4800 µM
# T1 sequence (P02769 whole entry): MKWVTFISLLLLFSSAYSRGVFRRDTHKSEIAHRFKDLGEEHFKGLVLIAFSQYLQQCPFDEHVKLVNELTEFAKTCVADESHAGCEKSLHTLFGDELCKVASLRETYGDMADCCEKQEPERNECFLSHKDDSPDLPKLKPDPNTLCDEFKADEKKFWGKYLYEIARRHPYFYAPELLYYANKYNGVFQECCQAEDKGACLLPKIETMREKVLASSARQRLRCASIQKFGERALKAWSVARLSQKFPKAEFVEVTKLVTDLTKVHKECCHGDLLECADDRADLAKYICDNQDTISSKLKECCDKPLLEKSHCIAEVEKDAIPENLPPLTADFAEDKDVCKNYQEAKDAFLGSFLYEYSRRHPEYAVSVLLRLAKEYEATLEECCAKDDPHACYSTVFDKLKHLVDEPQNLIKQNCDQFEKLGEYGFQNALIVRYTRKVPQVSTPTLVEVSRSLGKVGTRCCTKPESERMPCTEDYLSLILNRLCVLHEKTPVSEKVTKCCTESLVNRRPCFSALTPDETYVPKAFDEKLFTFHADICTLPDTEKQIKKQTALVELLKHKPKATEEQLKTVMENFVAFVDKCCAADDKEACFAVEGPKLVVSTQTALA
# Albumin [8] = biological target: T1, Albumin; assay: Covalent binding affinity to bovine serum albumin at 4.8 mM after 1 hr by combustion-LSC method in presence of DDQ relative to control; type: ADME; conditions: cattle, 4800 µM
structure (smiles),measurement,setting,value
[3H]C1C2=CC(=O)C(C)=CC2=NC1C (centres undefined),Drug uptake,Brain,0.05%
Cc1cc(O)c(CC(C)N)cc1O (centres undefined),Stability,[1],Stable
same,half-life at 37 µM,[2],1.67 h
same,half-life at 37 µM,[3],0.167 h
same,half-life at 37 µM,[4],3 h
same,half-life at 37 µM,[5],1.17 h
[3H]C([3H])([3H])C(N)C([3H])([3H])c1cc(OC)c(C)cc1OC (centres undefined),Activity,[6],0.2%
[3H]C([3H])([3H])C(N)C([3H])([3H])c1cc(O)c(C)cc1O (centres undefined),PB,Albumin [7],0.12 equiv
same,fold change (FC),Albumin [8],2
